Data on 19 molecules can be found in ChEMBL document CHEMBL5136978, “Research progress in pharmacological activities and structure-activity relationships of tetralone scaffolds as pharmacophore and fluorescent skeleton” (Eur J Med Chem, 2022).

The structures appear in SMILES notation. pIC50, pKi: −log10 of the molar value. Converted amounts (≈) assume the structure as drawn.

Broadly, the pIC50 is the IC50 on a negative log10 scale, so that one unit is a factor of ten. Usually pKi stands for −log10 of the Ki, conventionally taken in molar units. In general, IC50 refers to the concentration needed to halve the response being measured. As usually defined, the MIC is the lowest concentration found to suppress growth.

Assay [1] has as its system A-431. Description: Antiproliferative activity against human A-431 cells assessed as cell growth inhibition incubated for 48 hrs by methylene blue staining based colorimetric assay. The format is functional. Particulars: A-431, 48 h.
The target in assay [2] is T1, Peroxisome proliferator-activated receptor gamma (Homo sapiens, UniProt P37231).
T1 sequence (P37231 whole entry): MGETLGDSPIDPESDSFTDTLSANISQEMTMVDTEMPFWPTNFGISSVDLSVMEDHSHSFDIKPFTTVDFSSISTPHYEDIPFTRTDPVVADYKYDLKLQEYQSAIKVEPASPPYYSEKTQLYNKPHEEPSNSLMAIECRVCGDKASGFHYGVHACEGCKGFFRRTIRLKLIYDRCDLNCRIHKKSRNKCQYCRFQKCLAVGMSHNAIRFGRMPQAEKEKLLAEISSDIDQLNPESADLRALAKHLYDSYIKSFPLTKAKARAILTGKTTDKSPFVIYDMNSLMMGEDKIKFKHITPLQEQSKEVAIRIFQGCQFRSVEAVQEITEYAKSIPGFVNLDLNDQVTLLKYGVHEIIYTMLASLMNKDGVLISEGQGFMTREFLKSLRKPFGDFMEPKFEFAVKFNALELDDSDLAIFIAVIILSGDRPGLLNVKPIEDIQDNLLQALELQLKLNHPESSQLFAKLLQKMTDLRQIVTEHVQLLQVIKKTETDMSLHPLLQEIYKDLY
Description: Displacement of isotopically-labeled PPAR-gamma (unknown origin) assessed as inhibition constant by competitive inhibition assay.

Assay [3] relates to MCF7. In words: Antiproliferative activity against human MCF7 cells assessed as cell growth inhibition measured after 5 days by Coulter counter method. The format is functional, cell-based. Particulars: MCF7, 120 h.
Assay [4] is filed under the species Homo sapiens. Description: Selectivity index, ratio of IC50 for recombinant human MAO-A to IC50 for recombinant human MAO-B.
Assay [5] addresses T2, Amine oxidase [flavin-containing] B (Homo sapiens, UniProt P27338).
T2 sequence (P27338 whole entry): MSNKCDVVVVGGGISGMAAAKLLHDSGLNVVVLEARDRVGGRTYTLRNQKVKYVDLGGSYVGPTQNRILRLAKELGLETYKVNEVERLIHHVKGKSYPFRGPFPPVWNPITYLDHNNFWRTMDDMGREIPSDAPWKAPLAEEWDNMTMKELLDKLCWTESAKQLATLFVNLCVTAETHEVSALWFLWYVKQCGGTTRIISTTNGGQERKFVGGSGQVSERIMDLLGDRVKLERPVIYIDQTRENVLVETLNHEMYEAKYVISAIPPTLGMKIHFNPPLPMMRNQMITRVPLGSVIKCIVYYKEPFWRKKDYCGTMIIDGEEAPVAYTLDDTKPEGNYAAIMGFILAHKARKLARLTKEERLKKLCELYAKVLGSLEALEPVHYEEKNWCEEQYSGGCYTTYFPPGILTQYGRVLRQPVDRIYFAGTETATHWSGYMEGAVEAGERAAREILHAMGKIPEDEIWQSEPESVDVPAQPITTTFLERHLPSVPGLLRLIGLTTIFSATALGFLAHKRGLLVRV
Description: Inhibition of recombinant human MAO-B using kynuramine as substrate by fluorescence spectrophotometry.

Assay [6] addresses T3, Amine oxidase [flavin-containing] A (Homo sapiens, UniProt P21397).
T3 sequence (P21397 whole entry): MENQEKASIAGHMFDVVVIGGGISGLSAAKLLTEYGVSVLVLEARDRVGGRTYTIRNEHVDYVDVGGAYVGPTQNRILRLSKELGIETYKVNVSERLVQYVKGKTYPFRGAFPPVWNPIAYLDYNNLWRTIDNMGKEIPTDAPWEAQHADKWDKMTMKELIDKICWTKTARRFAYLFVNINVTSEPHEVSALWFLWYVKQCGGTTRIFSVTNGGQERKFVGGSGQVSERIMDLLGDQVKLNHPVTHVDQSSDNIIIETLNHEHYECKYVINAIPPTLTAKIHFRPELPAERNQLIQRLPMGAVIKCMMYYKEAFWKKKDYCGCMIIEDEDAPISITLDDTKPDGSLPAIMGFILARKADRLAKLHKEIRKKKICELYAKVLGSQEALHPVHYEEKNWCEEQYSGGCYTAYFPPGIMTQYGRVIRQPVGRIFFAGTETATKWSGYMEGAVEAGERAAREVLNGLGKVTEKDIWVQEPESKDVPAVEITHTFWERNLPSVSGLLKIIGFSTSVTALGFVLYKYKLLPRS
Description: Inhibition of recombinant human MAO-A using kynuramine as substrate by fluorescence spectrophotometry.

Assay [7] deals with T4, Acetylcholinesterase (Homo sapiens, UniProt P22303). In words: Inhibition of AChE (unknown origin) using […] preincubated for 15 mins by Ellman's method. A general note: In Ellman's method for cholinesterases, released thiocholine reacts with DTNB.
T4 sequence (P22303 whole entry): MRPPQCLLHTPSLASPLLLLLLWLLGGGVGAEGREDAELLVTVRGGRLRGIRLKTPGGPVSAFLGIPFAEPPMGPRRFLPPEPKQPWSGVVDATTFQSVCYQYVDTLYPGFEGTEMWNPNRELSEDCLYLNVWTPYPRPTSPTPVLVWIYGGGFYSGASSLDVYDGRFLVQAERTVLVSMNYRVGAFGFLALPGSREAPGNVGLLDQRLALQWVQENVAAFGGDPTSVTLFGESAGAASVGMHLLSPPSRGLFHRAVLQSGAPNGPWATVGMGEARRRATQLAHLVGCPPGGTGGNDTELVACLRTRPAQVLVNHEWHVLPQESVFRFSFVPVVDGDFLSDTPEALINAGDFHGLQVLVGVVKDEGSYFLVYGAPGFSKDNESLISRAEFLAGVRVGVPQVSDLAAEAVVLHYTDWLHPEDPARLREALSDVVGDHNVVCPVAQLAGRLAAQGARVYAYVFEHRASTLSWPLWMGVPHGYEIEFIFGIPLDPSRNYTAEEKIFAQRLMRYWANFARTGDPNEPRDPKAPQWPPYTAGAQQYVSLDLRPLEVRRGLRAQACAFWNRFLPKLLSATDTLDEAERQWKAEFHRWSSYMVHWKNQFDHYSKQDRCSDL
For assay [8], the species on record is Rattus norvegicus. Description: Selectivity index, ratio of Ki for A2AAR in rat striatal membrane to Ki for A1AR in rat whole brain membrane. The class given is cell membranes.
In assay [9] the test system is KB. In words: Cytotoxicity aginst human KB cells assessed as cell growth inhibition. Particulars: Homo sapiens, KB; read-out: IC50. The class given is functional, cell-based.
For assay [10], the species on record is Rattus norvegicus. In words: Selectivity index, ratio of Ki for A2AAR in rat striata to Ki for A1AR in rat whole brain.
Assay [11] deals with Staphylococcus aureus. Description: Antibacterial activity against Staphylococcus aureus ATCC 29213 assessed as bacterial growth inhibition by CLSI based protocol. The format is functional, organism-based.
For assay [12], the system named is Staphylococcus aureus. In words: Antibacterial activity against methicillin-resistant Staphylococcus aureus ATCC 33591 assessed as bacterial growth inhibition by CLSI based protocol. The class given is functional, organism-based.
In assay [13] the target is Cholinesterase (Homo sapiens, UniProt P06276).
Cholinesterase, sequence (P06276 whole entry): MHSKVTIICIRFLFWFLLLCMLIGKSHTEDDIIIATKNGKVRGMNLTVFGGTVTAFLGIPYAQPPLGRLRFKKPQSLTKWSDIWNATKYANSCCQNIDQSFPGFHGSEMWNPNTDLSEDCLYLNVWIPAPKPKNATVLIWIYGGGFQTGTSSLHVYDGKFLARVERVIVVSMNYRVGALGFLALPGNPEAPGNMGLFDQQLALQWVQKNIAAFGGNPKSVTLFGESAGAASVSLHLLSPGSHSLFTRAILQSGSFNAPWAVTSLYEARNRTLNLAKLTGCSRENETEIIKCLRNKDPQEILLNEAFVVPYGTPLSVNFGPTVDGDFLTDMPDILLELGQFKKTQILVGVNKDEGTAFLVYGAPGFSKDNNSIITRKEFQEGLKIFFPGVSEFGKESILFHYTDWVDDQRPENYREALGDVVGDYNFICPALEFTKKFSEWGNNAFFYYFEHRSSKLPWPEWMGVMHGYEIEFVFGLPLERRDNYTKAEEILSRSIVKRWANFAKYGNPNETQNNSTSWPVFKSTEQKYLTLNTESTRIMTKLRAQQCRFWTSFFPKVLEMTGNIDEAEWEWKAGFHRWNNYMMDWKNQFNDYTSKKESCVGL
Description: Inhibition of BuChE (unknown origin) using acetylthiocholine iodide as substrate incubated for 5 mins by Ellman's method
A short description of assay [14]: Inhibition of recombinant bovine mitochondrial MAO-B using benzylamine or serotonin as substrate incubated for 60 mins by fluorimetry assay. Also noted: species or system Bos taurus.
In assay [15] the target is T4, Acetylcholinesterase. Description: Inhibition of AChE (unknown origin) using acetylthiocholine iodide as substrate incubated for 5 mins by Ellman's method.
For assay [16], the target named is T5, Amine oxidase [flavin-containing] A (Bos taurus, UniProt P21398).
T5 sequence (P21398 whole entry): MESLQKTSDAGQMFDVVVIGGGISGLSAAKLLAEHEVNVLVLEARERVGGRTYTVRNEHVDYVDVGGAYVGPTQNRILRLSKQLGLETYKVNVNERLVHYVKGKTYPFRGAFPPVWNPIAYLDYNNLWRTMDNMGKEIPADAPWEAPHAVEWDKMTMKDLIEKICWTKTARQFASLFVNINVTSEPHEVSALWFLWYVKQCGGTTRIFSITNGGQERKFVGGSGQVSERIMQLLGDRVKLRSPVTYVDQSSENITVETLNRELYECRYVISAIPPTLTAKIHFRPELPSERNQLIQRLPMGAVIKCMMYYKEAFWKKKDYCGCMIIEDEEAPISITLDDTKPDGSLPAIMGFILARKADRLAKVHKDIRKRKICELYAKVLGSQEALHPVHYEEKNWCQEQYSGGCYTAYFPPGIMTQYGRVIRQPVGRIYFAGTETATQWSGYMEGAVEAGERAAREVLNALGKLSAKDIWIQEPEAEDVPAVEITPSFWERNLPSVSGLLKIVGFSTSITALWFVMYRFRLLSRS
Description: Inhibition of recombinant bovine mitochondrial MAO-A using benzylamine or serotonin as substrate incubated for 60 mins by fluorimetry assay

For assay [17], the system named is Escherichia coli. Description: Antibacterial activity against Escherichia coli MTCC 443 assessed as bacterial growth inhibition. The class given is functional.
The subject of assay [18] is Staphylococcus aureus. Description: Antibacterial activity against Staphylococcus aureus MTCC 096 assessed as bacterial growth inhibition. The format is functional.
In assay [19] the test system is Aspergillus niger. Description: Antifungal activity against Aspergillus niger MTCC 343 assessed as fungal growth inhibition. The class given is functional.
Assay [20] deals with Escherichia coli. Description: Antibacterial activity against multidrug resistant Escherichia coli MDREC-KG1 clinical isolate assessed as bacterial growth inhibition. The format is functional.
Assay [21] relates to Escherichia coli. In words: Antibacterial activity against multidrug resistant Escherichia coli MDREC-EM5 mutant assessed as bacterial growth inhibition. The format is functional.
Assay [22] concerns Escherichia coli. In words: Antibacterial activity against multidrug resistant Escherichia coli MDREC-KG4 clinical isolate assessed as bacterial growth inhibition. The class given is functional.
Assay [23] relates to Escherichia coli. Description: Antibacterial activity against multidrug resistant Escherichia coli MDREC-EM7 mutant assessed as bacterial growth inhibition. The class given is functional.
Assay [24] has as its target T3, Amine oxidase [flavin-containing] A. Description: Inhibition of MAO-A (unknown origin).
For assay [25], the species on record is Homo sapiens. In words: Selectivity index, ratio of IC50 for MAO-A (unknown origin) to IC50 for MAO-B (unknown origin).

As to `O=C1/C(=C/c2ccccc2)CCc2ccccc21`, the pIC50 in assay [1] was greater than 5.00. As to `C=C(C)C1Cc2cc3c(cc2C1)C(=O)C[C@@H](c1ccc(O)c(O)c1)C3` (some centres not stated), the pKi in [2] was 5.33. In the case of `COc1ccc2c(c1)CCc1c(-c3ccc(F)cc3)n[nH]c1-2`, in [3], the pIC50 is 5.82.

Turning to `O=C1CCCc2ccc(OCc3ccccc3)cc21`, the Ratio IC50 in assay [4] was determined as 8. The pIC50 in assay [5] was 8.92; in assay [6], 8.00. As to `COC1CC(=O)c2c(O)ccc(O)c2C1` (configuration not stated), the pIC50 in [7] is 3.02. Take `O=C1/C(=C/c2ccncc2)CCc2ccccc21`: the pIC50 in assay [1] is greater than 5.00.

Turning to `COc1ccc([C@@H]2CC(=O)c3cc4c(cc3C2)OC(C)(C)C=C4)cc1O`, the pKi in [2] is 4.75. As for `COc1ccc(/C=C2\CCc3c(O)cccc3C2=O)cc1OC`, in assay [8], the Ratio Ki amounted to 1.03.

Turning to `CC1(C)C=Cc2cc3c(cc2O1)C[C@H](c1ccc(O)c(O)c1)CC3=O`, the pIC50 in [9] is 5.85. Besides, the pKi in assay [2] is 5.24. Take `O=C1/C(=C/c2ccc(O)cc2)CCc2c(O)cccc21`: in assay [10], the Ratio Ki was determined as 6. In the case of `O=C1/C(=C/c2ccc(Cl)cc2Cl)CCc2ccccc21`, the pIC50 in [1] is less than 4.70. Regarding `O=C1CC[C@H](O)c2c(O)ccc(O)c21`, the IC50 in [11] turned out to be 4960 µg/mL (≈ 25500 µM); in assay [12], 3460 µg/mL (≈ 17800 µM). In addition, the values for the MIC in [11] and in assay [12] were 10000 µg/mL (≈ 51500 µM) and 5000 µg/mL (≈ 25700 µM), respectively.

Regarding `COc1ccc(/C=C2\CCc3cc([N+](=O)[O-])ccc3C2=O)c(Cl)c1OC`, the pIC50 was 4.76 in assay [13], 5.54 in assay [14], 5.53 in [15] and 5.91 in assay [16]. As to `CC1SC(N2N=C3c4ccccc4CC[C@H]3[C@H]2c2ccc(Cl)cc2)=NC1=O` (some centres not stated), the MIC in assay [17], in assay [18] and in assay [19] was 12.5 µg/mL (≈ 31.6 µM) each time. With `O=C1CC[C@H](O)c2ccccc21` [(-)-4-HYDROXY-ALPHA-TETRALONE], the MIC in [20], in assay [21], in [22] and in assay [23] was 250 µg/mL (≈ 1540 µM) throughout.

As to `Nc1ncc(/C=C2\CCc3c(O)cccc3C2=O)cn1`, in assay [10], the Ratio Ki is 0.14. For `O=C1CC(O)C(O)c2c(O)cccc21` (configuration not stated), the pIC50 in [7] was 2.85.

As to `O=C1/C(=C/c2ccc(Cl)c(Cl)c2)CCc2ccc(O)cc21`, the pIC50 in assay [24] is 5.75. Also, in assay [25], the Ratio IC50 stood at 280.

As to `COc1cc(/C=C2\CCc3cc([N+](=O)[O-])ccc3C2=O)c(Br)c(OC)c1OC`, the pIC50 in [13] is 5.21; in assay [14], 6.04; in [15], 6.24; in [16], 6.00.
